A word on the pIC50: it is the negative decadic logarithm of the IC50, by convention in mol/L.

Data on 19 compounds can be found in patent US20240366612A1, “COMPOUNDS AND METHODS FOR MODULATING NUCLEIC ACID SPLICING” (REMIX THERAPEUTICS INC., priority 2021, published 2024).

Holding throughout (assay type): cell-based
One test concerns HTT CJ mRNA. Briefly: Gene panel canonical junction qPCR assay, HTT. Particulars: Homo sapiens, larger gene panel, read-out: HTT IC50 (decrease in CJ mRNA levels). How it is done:
(§1) Compounds described herein were used to modulate RNA transcript abundance in cells. The expression of a target mRNA was measured by detecting the formation of an exon-exon junction in the canonical transcript (CJ). A compound mediated exon-inclusion event was detected by observing an increase in formation of a new junction with an alternative exon (AJ). Real-time qPCR assays were used to detect these splicing switches and interrogate the potency of various compounds towards different target genes. A high-throughput real time quantitative PCR (RT-qPCR) assay was developed to measure these two isoforms of the mRNA (CJ and AJ) for exemplary genes, such as HTT, SMN2, and MYB, together with a control housekeeping gene, GAPDH or GUSB or PPIA, used for normalization. Briefly, the A673 or K562 cell line was treated with various compounds described herein (e.g., compounds of Formula (I)). After treatment, the levels of the HTT, MYB, or SMN2 mRNA targets were determined from each sample of cell lysate by cDNA synthesis followed by qPCR.
(§2) The A673 cell line was cultured in DMEM with 10% FBS. Cells were diluted with full growth media and plated in a 96-well plate (15,000 cells in 100 ul media per well). The plate was incubated at 37° C. with 5% CO2 for 24 hours to allow cells to adhere. An 11-point 3-fold serial dilution of the compounds was made in DMSO then diluted in media in an intermediate plate. Compounds were transferred from the intermediate plate to the cell plate with the top dose at a final concentration of 10 uM in the well. Final DMSO concentration was kept at or below 0.25%. The cell plate was returned to the incubator at 37° C. with 5% CO2 for an additional 24 hours.
(§3) The K562 cell line was cultured in IMDM with 10% FBS. For K562, cells were diluted with full growth media and plated in either a 96-well plate (50,000 cells in 50 uL media per well) or a 384-well plate (8,000-40,000 cells in 45 uL media per well). An 11-point 3-fold serial dilution of the compounds were made in DMSO then diluted in media in an intermediate plate. Compound was transferred from the intermediate plate to the cell plate with the top dose at a final concentration of 10 uM in the well. Final DMSO concentration was kept at or below 0.25%. Final volume was 100 uL for 96-well plate and 50 uL for 384-well plate. The cell plate was then placed in an incubator at 37° C. with 5% CO2 for 24 hours.
(§4) The data analysis was performed by first determining the ΔCt vs the housekeeper gene. This ΔCt was then normalized against the DMSO control (ΔΔCt) and converted to RQ (relative quantification) using the 2^(−ΔΔCt) equation. The RQ were then converted to a percentage response by arbitrarily setting an assay window of 3.5 and 4.0 ΔCt for HTT-CJ and MYB-CJ respectively and an assay window of 9 and 3 ΔCt for HTT-AJ and MYB-AJ in 96 well format (50,000 K562 cells/well and 15,000 A673 cells per well) and an assay window of 3 and 4 ΔCt for HTT-CJ and MYB-CJ respectively and an assay window of 5 and 3 ΔCt for HTT-AJ and MYB-AJ respectively in 384 well format (8,000 K562 cells/well example). […] The percentage response was then fitted to the 4 parametric logistic equation to evaluate the concentration dependence of compound treatment. The increase in AJ mRNA is reported as AC50 (compound concentration having […] in AJ increase) while the decrease in CJ mRNA levels is reported as IC50 (compound concentration having 50% response in CJ decrease).
(§5) Additional studies were carried out for a larger panel of genes using the protocol provided above. The junction between flanking upstream and downstream exons was used to design canonical junction qPCR assays. At least one of the forward primer, reverse primer or the CY5-labeled 5′ nuclease probe (with 3′ quencher such as ZEN/Iowa Black FQ) was designed to overlap with the exon junction to capture the CJ mRNA transcript. […]
A general note: In qPCR the cycle at which signal appears reflects the starting amount.

A further test concerns SMN2 CJ mRNA. Kind of test: Gene panel canonical junction qPCR assay, SMN2. The conditions noted are these: Homo sapiens, larger gene panel, read-out: SMN2 IC50 (decrease in CJ mRNA levels). How it is done:
as §1, §2, §3, §4, §5

Another test concerns Target C CJ mRNA. Briefly: Gene panel canonical junction qPCR assay, Target C. Particulars: Homo sapiens, larger gene panel, read-out: Target C IC50 (decrease in CJ mRNA levels). The procedure: as §1, §2, §3, §4, §5

pIC50: −log10 of the molar value.

On to `Cc1cn2cc(-c3cc(=O)n4nc(N5CCNC6(CC6)C5)sc4n3)cc(F)c2n1` [Compound 209, 7-(8-fluoro-2-methylimidazo[1,2-a]pyridin-6-yl)-2-(4,7-diazaspiro[2.5]octan-7-yl)-5H-[1,3,4]thiadiazolo[3,2-a]pyrimidin-5-one], for which the pIC50 in the test on HTT CJ mRNA, in the test with SMN2 CJ mRNA and in the test on Target C CJ mRNA was 5.00 to 6.00 in each case.

`Cc1cc(-c2nn3c(=O)cc(N4CCN(C)CC4)nc3s2)cc2cn(C)nc12` [Compound 210, 2-(2,7-dimethyl-2H-indazol-5-yl)-7-(4-methylpiperazin-1-yl)-5H-[1,3,4]thiadiazolo[3,2-a]pyrimidin-5-one]: the pIC50 in the test on HTT CJ mRNA, in the test on SMN2 CJ mRNA and in the test on Target C CJ mRNA was 5.00 to 6.00 throughout.

For the compound `Cc1cn2nc(-c3cc(=O)n4cc(N5CCNC6(CC6)C5)sc4n3)cc(C)c2n1` [Compound 211, 7-(2,8-dimethylimidazo[1,2-b]pyridazin-6-yl)-2-(4,7-diazaspiro[2.5]octan-7-yl)-5H-thiazolo[3,2-a]pyrimidin-5-one], the pIC50 was 5.00 to 6.00 with HTT CJ mRNA, 6.00 to 7.00 in the test on SMN2 CJ mRNA and 5.00 to 6.00 in the test with Target C CJ mRNA.

Consider `Cc1cn2nc(-c3cn4c(=O)cc(N5CCNC6(CC6)C5)nc4s3)cc(C)c2n1` [Compound 212, 2-(2,8-dimethylimidazo[1,2-b]pyridazin-6-yl)-7-(4,7-diazaspiro[2.5]octan-7-yl)-5H-thiazolo[3,2-a]pyrimidin-5-one], for which the pIC50 in the test on HTT CJ mRNA, in the test with SMN2 CJ mRNA and with Target C CJ mRNA was 5.00 to 6.00 each time.

In the case of `Cc1cn2cc(-c3cn4c(=O)cc(N5CCNCC5)nc4s3)cc(F)c2n1` [Compound 213, 2-(8-fluoro-2-methylimidazo[1,2-a]pyridin-6-yl)-7-(piperazin-1-yl)-5H-thiazolo[3,2-a]pyrimidin-5-one], the pIC50 with HTT CJ mRNA was less than 5.00; in the test with SMN2 CJ mRNA, 5.00 to 6.00; in the test on Target C CJ mRNA it was less than 5.00.

As for `Cc1cn2cc(-c3nn4c(=O)cc(N5CCNCC5)nc4s3)cc(F)c2n1` [Compound 214, 2-(8-fluoro-2-methylimidazo[1,2-a]pyridin-6-yl)-7-(piperazin-1-yl)-5H-[1,3,4]thiadiazolo[3,2-a]pyrimidin-5-one], the pIC50 with HTT CJ mRNA is 5.00 to 6.00; in the test on SMN2 CJ mRNA it was 6.00 to 7.00; with Target C CJ mRNA it was less than 5.00.

For the compound `Cc1cn2cc(-c3nn4c(=O)cc(N5CCNC6(CC6)C5)nc4s3)cc(F)c2n1` [Compound 216, 2-(8-fluoro-2-methylimidazo[1,2-a]pyridin-6-yl)-7-(4,7-diazaspiro[2.5]octan-7-yl)-5H-[1,3,4]thiadiazolo[3,2-a]pyrimidin-5-one], the pIC50 with HTT CJ mRNA, in the test with SMN2 CJ mRNA and in the test on Target C CJ mRNA was 5.00 to 6.00 in each case.

As for `Cc1cn2cc(-c3nn4c(=O)cc(N5CCN(C)CC5)nc4s3)cc(F)c2n1` [Compound 217, 2-(8-fluoro-2-methylimidazo[1,2-a]pyridin-6-yl)-7-(4-methylpiperazin-1-yl)-5H-[1,3,4]thiadiazolo[3,2-a]pyrimidin-5-one], the pIC50 in the test on HTT CJ mRNA, in the test with SMN2 CJ mRNA and with Target C CJ mRNA was 5.00 to 6.00 throughout.

Consider `Cc1cn2cc(-c3nn4c(=O)cc(N5CCN(C)C6(CC6)C5)nc4s3)cc(F)c2n1` [Compound 218, 2-(8-fluoro-2-methylimidazo[1,2-a]pyridin-6-yl)-7-(4-methyl-4,7-diazaspiro[2.5]octan-7-yl)-5H-[1,3,4]thiadiazolo[3,2-a]pyrimidin-5-one], for which the pIC50 in the test with HTT CJ mRNA, with SMN2 CJ mRNA and in the test with Target C CJ mRNA was 5.00 to 6.00 each time.

For `Cn1cc2cc(-n3cnc4nc(N5CCNCC5)sc4c3=O)ccc2n1` [Compound 225, 6-(2-methyl-2H-indazol-5-yl)-2-(piperazin-1-yl)thiazolo[4,5-d]pyrimidin-7(6H)-one], the pIC50 in the test with HTT CJ mRNA, in the test on SMN2 CJ mRNA and in the test on Target C CJ mRNA was less than 5.00 throughout.

As to `Cc1cn2cc(-n3cnc4nc(N5CCNCC5)sc4c3=O)cc(F)c2n1` [Compound 226, 6-(8-fluoro-2-methylimidazo[1,2-a]pyridin-6-yl)-2-(piperazin-1-yl)thiazolo[4,5-d]pyrimidin-7(6H)-one], the pIC50 in the test with HTT CJ mRNA, in the test with SMN2 CJ mRNA and in the test with Target C CJ mRNA was 6.00 to 7.00 in each case.

Turning to `Cc1cn2cc(-n3cnc4nc(N5CCN(C)CC5)sc4c3=O)cc(F)c2n1` [Compound 228, 6-(8-fluoro-2-methylimidazo[1,2-a]pyridin-6-yl)-2-(4-methylpiperazin-1-yl)thiazolo[4,5-d]pyrimidin-7(6H)-one], the pIC50 in the test with HTT CJ mRNA, in the test with SMN2 CJ mRNA and in the test with Target C CJ mRNA was 5.00 to 6.00 in each case.

Take `Cc1cn2cc(-n3cnc4nc(N5CCNCC5)sc4c3=O)cc(C(F)(F)F)c2n1` [Compound 229, 6-(2-methyl-8-(trifluoromethyl)imidazo[1,2-a]pyridin-6-yl)-2-(piperazin-1-yl)thiazolo[4,5-d]pyrimidin-7(6H)-one]: the negative logarithm of the IC50 (pIC50) with HTT CJ mRNA, with SMN2 CJ mRNA and in the test with Target C CJ mRNA was less than 5.00 throughout.

`Cc1cn2cc(-n3cnc4nc(N5CCN(C)CC5)sc4c3=O)cc(C(F)(F)F)c2n1` [Compound 230, 6-(2-methyl-8-(trifluoromethyl)imidazo[1,2-a]pyridin-6-yl)-2-(4-methylpiperazin-1-yl)thiazolo[4,5-d]pyrimidin-7(6H)-one]: the pIC50 with HTT CJ mRNA, in the test on SMN2 CJ mRNA and in the test with Target C CJ mRNA was less than 5.00 each time.

As for `Cc1cn2nc(-c3nc4ncn(C5CCNCC5)c(=O)c4s3)cc(C)c2n1` [Compound 231, 2-(2,8-dimethylimidazo[1,2-b]pyridazin-6-yl)-6-(piperidin-4-yl)thiazolo[4,5-d]pyrimidin-7(6H)-one], the results for the pIC50 in the test with HTT CJ mRNA, in the test on SMN2 CJ mRNA and in the test on Target C CJ mRNA were 6.00 to 7.00, 5.00 to 6.00 and 5.00 to 6.00, respectively.

In the case of `Cc1cn2cc(-c3nc4ncn(C5CCNCC5)c(=O)c4s3)cc(F)c2n1` [Compound 232, 2-(8-fluoro-2-methylimidazo[1,2-a]pyridin-6-yl)-6-(piperidin-4-yl)thiazolo[4,5-d]pyrimidin-7(6H)-one], the pIC50 was more than 7.00 in the test with HTT CJ mRNA, more than 7.00 in the test with SMN2 CJ mRNA and 6.00 to 7.00 in the test on Target C CJ mRNA.

With `Cc1cc(-c2nc3ncn(C4CCNCC4)c(=O)c3s2)cc2cn(C)nc12` [Compound 233, 2-(2,7-dimethyl-2H-indazol-5-yl)-6-(piperidin-4-yl)thiazolo[4,5-d]pyrimidin-7(6H)-one], the negative-log IC50 (pIC50) in the test with HTT CJ mRNA was more than 7.00; in the test on SMN2 CJ mRNA, more than 7.00; in the test on Target C CJ mRNA it was 6.00 to 7.00.

Turning to `Cc1cc(-c2nc3ncn(C4CCN(C)CC4)c(=O)c3s2)cc2cn(C)nc12` [Compound 234, 2-(2,7-dimethyl-2H-indazol-5-yl)-6-(1-methylpiperidin-4-yl)thiazolo[4,5-d]pyrimidin-7(6H)-one], the pIC50 was 6.00 to 7.00 with HTT CJ mRNA, more than 7.00 with SMN2 CJ mRNA and 5.00 to 6.00 in the test with Target C CJ mRNA.

Regarding `Cc1cn2cc(-c3cc4ncn(C5CCNCC5)c(=O)c4s3)cc(F)c2n1` [Compound 235, 6-(8-fluoro-2-methylimidazo[1,2-a]pyridin-6-yl)-3-(piperidin-4-yl)thieno[3,2-d]pyrimidin-4(3H)-one], the pIC50 in the test on HTT CJ mRNA is more than 7.00; in the test with SMN2 CJ mRNA, more than 7.00; in the test on Target C CJ mRNA, 6.00 to 7.00.
